The text below walks through data of patent US12060360B2, “Lysyl oxidase inhibitors” (The Institute of Cancer Research: Royal Cancer Hospital, priority 2017, dated 2024).

Each structure is given as a SMILES string.

For one test, the target named is T1, LOX (Mus musculus, UniProt P28301).
T1 construct: Full length LOX cDNA was then PCR cloned into pEGFP-N1 (Clonetech), or biosensor vector proGFP2-N1; expressed in transfected cells; host or cells: MDCK cells grown as cysts on Matrigel, G418-selected
T1 sequence (P28301 163-411): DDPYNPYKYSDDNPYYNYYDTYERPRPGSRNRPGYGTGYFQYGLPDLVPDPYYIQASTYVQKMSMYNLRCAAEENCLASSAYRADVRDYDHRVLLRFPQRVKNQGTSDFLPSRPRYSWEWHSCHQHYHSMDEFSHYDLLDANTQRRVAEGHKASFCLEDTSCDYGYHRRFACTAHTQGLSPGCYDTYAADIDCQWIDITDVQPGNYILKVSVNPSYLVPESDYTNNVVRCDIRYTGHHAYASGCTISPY
Put plainly: LOX activity in cysts assay (LOX-roGFP2 biosensor, MDCK cysts). Conditions: 2.5 uM (stated in cell); MDCK cysts; DMSO = 0%, BAPN 1 mM = 100% inhibition; read-out: LOX biosensor inhibition (cyst) @ 2.5 uM. It is filed as cell-based. The protocol:
LOX Activity in Cysts Assay (Tang et al, 2017).
All cell lines used in this study were purchased from American Type Culture Collection (ATCC). Mycoplasma contamination was routinely monitored by PCR. Cells used were not found to be Mycoplasma positive. MDCK cell lines were cultured in Dulbecco's Modified Eagle Medium (DMEM) supplemented with 10% fetal bovine serum (FBS) and 1% Penicillin Streptomycin solution (Pen Strep). For GFP constructs transfection in MDCK cells, lipofectamine 3000 was used according to manufactures protocols. Cells were either selected with G418 (Life Technologies) at 5 mg/ml. All cell culture reagents were purchased from Life Technologies.
To produce MDCK cysts, cells were cultured on Matrigel (Corning) with 2% Matrigel supplemented in DMEM with 10% FBS. Cysts were allowed to form for 10 days before subsequent studies.
Mouse LOX cDNA was purchased from OriGene. Full length LOX cDNA was then PCR cloned into pEGFP-N1 (Clonetech), or biosensor vector proGFP2-N1 (Hanson, 2004) using the following primers, […] (forward primer) and […] (reverse primer). For the insertion into pEGFP-N1 or proGFP2-N1, NheI and XhoI restriction sites were added to forward and reverse primers accordingly. Mutant LOX constructs were made using QuickChange II site-directed mutagenesis kit (Agilent Technologies) following manufacture's protocol using LOX-GFP as template. To generate, roGFP2 versions of LOX mutant constructs, LOX mutant cDNA was transferred from pEGFP-N1 to proGFP2-N1 using NheI and XhoI.
All photomicrographs were taken with a Leica TCS SP8 X confocal system. For LOX biosensor imaging, live MDCK cysts were used. The oxidised biosensor was excited using a 405 nm laser, while the reduced biosensor was excited with a 488 nm laser. Emission of the biosensor was recorded at 500 nm˜530 nm range using sequential scans. Ratio images were generated following a published protocol {Kardash, 2011 #376}. Note, while the published protocol generates YFP/CFP ratio images, we used it to generate Oxidised/Reduced (roGFP2 ratio) ratio images. The roGFP2 ratio at the basal surface of MDCK cysts was used to indicate LOX inhibition. LOX inhibitors were added 30 min prior to imaging.
For clarity, readout for DMSO treated cysts represents 0% inhibition (no inhibition) and readout for BAPN at 1 mM is used as 100% inhibition (full inhibition).
The inhibition is the percentage by which the read-out fell short of the control. `C#CCCCN1C[C@@H]2CN(c3ccc(OCC)cc3)[C@H](C1)C(C)(C)C2` [Example 44, (1R,5S)-6-(4-ethoxyphenyl)-9,9-dimethyl-3-(pent-4-yn-1-yl)-3,6-diazabicyclo[3.2.2]nonane]: the inhibition at 2.5 µM turned out to be 66%.

Staying with this test, now noted: 10 uM; MDCK cysts; inhibitor added 30 min prior to imaging; DMSO = 0%, BAPN 1 mM = 100% inhibition; read-out: LOX biosensor inhibition (cyst) @ 10 uM.
Take `CC1(C)C[C@@H]2CN(C(=O)N3CCS(=O)(=O)CC3)C[C@H]1N(c1ccc(N3CCN(S(C)(=O)=O)CC3)cc1)C2` [Example 31, ((1S,5S)-9,9-dimethyl-6-(4-(4-(methylsulfonyl)-1λ4-piperazin-1-yl)phenyl)-3,6-diazabicyclo[3.2.2]nonan-3-yl)(1,1-dioxidothiomorpholino)methanone]: the inhibition at 10 µM is 100%. Still for that read-out and setting: the figure for `CC1(C)C[C@@H]2CN(C(=O)NCCO)C[C@H]1N(c1ccc(N3CCCCC3)cc1)C2` [Example 32, (1S,5S)-N-(2-hydroxyethyl)-9,9-dimethyl-6-(4-(piperidin-1-yl)phenyl)-3,6-diazabicyclo[3.2.2]nonane-3-carboxamide] is 90%; for `CCCCc1ccc(N2C[C@H]3CN(C(=O)NCCO)C[C@@H]2C(C)(C)C3)cc1` [Example 33, (1S,5S)-6-(4-butylphenyl)-N-(2-hydroxyethyl)-9,9-dimethyl-3,6-diazabicyclo[3.2.2]nonane-3-carboxamide] it is 69.3%; for `CC1(C)C[C@@H]2CN(C(=O)NCCO)C[C@H]1N(c1ccc(Br)cc1)C2` [Example 35, (1S,5S)-6-(4-Bromophenyl)-N-(2-hydroxyethyl)-9,9-dimethyl-3,6-diazabicyclo[3.2.2]nonane-3-carboxamide] it is 84.1%. Take `CC1(C)C[C@@H]2CN(C(=O)NCCO)C[C@H]1N(c1ccc(C=O)cc1)C2` [Example 37, (1 S,5S)-6-(4-Formylphenyl)-N-(2-hydroxyethyl)-9,9-dimethyl-3,6-diazabicyclo[3.2.2]nonane-3-carboxamide]: the inhibition at 10 µM came to 86%.

Regarding `CCOc1ccc(N2C[C@H]3CN(C4=NCCO4)C[C@@H]2C(C)(C)C3)cc1` [Example 38, 2-((1S,5S)-6-(4-ethoxyphenyl)-9,9-dimethyl-3,6-diazabicyclo[3.2.2]nonan-3-yl)-4,5-dihydrooxazole], the inhibition at 10 µM was 59%. On to `CCOc1ccc(N2C[C@H]3CN(Cc4ccc(Cl)cc4)C[C@@H]2C(C)(C)C3)cc1` [Example 40, (1R,5S)-3-(4-chlorobenzyl)-6-(4-ethoxyphenyl)-9,9-dimethyl-3,6-diazabicyclo[3.2.2]nonane], for which the inhibition at 10 µM is 68%. `C#CCN1C[C@@H]2CN(c3ccc(OCC)cc3)[C@H](C1)C(C)(C)C2` [Example 41, (1R,5S)-6-(4-ethoxyphenyl)-9,9-dimethyl-3-(prop-2-yn-1-yl)-3,6-diazabicyclo[3.2.2]nonane]: the inhibition at 10 µM was 87%.

Consider `CCOc1ccc(N2C[C@H]3CN(CC4(CC#N)CC4)C[C@@H]2C(C)(C)C3)cc1` [Example 43, 2-(1-(((1R,5S)-6-(4-ethoxyphenyl)-9,9-dimethyl-3,6-diazabicyclo[3.2.2]nonan-3-yl)methyl)cyclopropyl)acetonitrile], for which the inhibition at 10 µM was 59%. On the same count and under the same terms, as for `CCOc1ccc(N2C[C@H]3CN(CCCC#N)C[C@@H]2C(C)(C)C3)cc1F` [Example 45, 4-((1R,5S)-6-(4-Ethoxy-3-fluorophenyl)-9,9-dimethyl-3,6-diazabicyclo[3.2.2]nonan-3-yl)butanenitrile], the figure is 42%; as for `CCOc1ccc(N2C[C@H]3CN(CC(O)CC#N)C[C@@H]2C(C)(C)C3)cc1` (stereo partly drawn) [Example 46, 4-((1R,5S)-6-(4-Ethoxyphenyl)-9,9-dimethyl-3,6-diazabicyclo[3.2.2]nonan-3-yl)-3-hydroxybutanenitrile], 72%. Take `CCOc1ccc(N2C[C@H]3CN(C4CCN(C)CC4)C[C@@H]2C(C)(C)C3)cc1` [Example 47, (1R,5S)-6-(4-ethoxyphenyl)-9,9-dimethyl-3-(1-methylpiperidin-4-yl)-3,6-diazabicyclo[3.2.2]nonane]: the inhibition at 10 µM was 90%. Regarding `CCOc1ccc(N2C[C@H]3CN(CCc4cn[nH]c4)C[C@@H]2C(C)(C)C3)cc1` [Example 48, (1R,5S)-3-(2-(1H-pyrazol-4-yl)ethyl)-6-(4-ethoxyphenyl)-9,9-dimethyl-3,6-diazabicyclo[3.2.2]nonane], the inhibition at 10 µM was found to be 100%. Take `CCOc1ccc(N2C[C@H]3CN(C(=O)CCC#N)C[C@@H]2C(C)(C)C3)cc1` [Example 50, 4-((1S,5S)-6-(4-Ethoxyphenyl)-9,9-dimethyl-3,6-diazabicyclo[3.2.2]nonan-3-yl)-4-oxobutanenitrile]: the inhibition at 10 µM was 57%. Turning to `CCOc1ccc(N2C[C@H]3CN(C(=O)c4ccccn4)C[C@@H]2C(C)(C)C3)cc1` [Example 51, ((1S,5S)-6-(4-ethoxyphenyl)-9,9-dimethyl-3,6-diazabicyclo[3.2.2]nonan-3-yl)(pyridin-2-yl)methanone], the inhibition at 10 µM came out at 75%. Turning to `CCOc1ccc(N2C[C@H]3CN(C(=O)CCc4cccnc4)C[C@@H]2C(C)(C)C3)cc1` [Example 52, 1-((1S,5S)-6-(4-ethoxyphenyl)-9,9-dimethyl-3,6-diazabicyclo[3.2.2]nonan-3-yl)-3-(pyridin-3-yl)propan-1-one], the inhibition at 10 µM was found to be 100%. In the case of `CCOc1ccc(N2C[C@H]3CN(C(=O)CNC(=N)CN)C[C@@H]2C(C)(C)C3)cc1` [Example 53, 2-amino-N-(2-((1S,5S)-6-(4-ethoxyphenyl)-9,9-dimethyl-3,6-diazabicyclo[3.2.2]nonan-3-yl)-2-oxoethyl)acetimidamide], the inhibition at 10 µM amounted to 100%. Turning to `CCCS(=O)(=O)N1C[C@@H]2CN(c3ccc(OCC)cc3)[C@H](C1)C(C)(C)C2` [Example 54, (1S,5S)-6-(4-ethoxyphenyl)-9,9-dimethyl-3-(propylsulfonyl)-3,6-diazabicyclo[3.2.2]nonane], the inhibition at 10 µM stood at 54%. `CCOc1ccc(N2C[C@H]3CN(S(=O)(=O)c4ccc(F)cc4)C[C@@H]2C(C)(C)C3)cc1` [Example 55, (1S,5S)-6-(4-ethoxyphenyl)-3-((4-fluorophenyl)sulfonyl)-9,9-dimethyl-3,6-diazabicyclo[3.2.2]nonane]: the inhibition at 10 µM was found to be 100%.

With `CNS(=O)(=O)N1C[C@@H]2CN(c3ccc(OC)cc3)[C@H](C1)C(C)(C)C2` [Example 56, (1S,5S)-6-(4-methoxyphenyl)-N,9,9-trimethyl-3,6-diazabicyclo[3.2.2]nonane-3-sulfonamide], the inhibition at 10 µM turned out to be 74%. Same read-out and setting: the figure for `CCOc1ccc(N2C[C@H]3CN(S(=O)(=O)N4CCOCC4)C[C@@H]2C(C)(C)C3)cc1` [Example 57, 4-(((1S,5S)-6-(4-ethoxyphenyl)-9,9-dimethyl-3,6-diazabicyclo[3.2.2]nonan-3-yl)sulfonyl)morpholine] is 93%; for `CCOc1ccc(N2C[C@H]3CN(c4ccc(NC(C)=O)cc4)C[C@@H]2C(C)(C)C3)cc1` [Example 58, N-(4-((1R,5S)-6-(4-ethoxyphenyl)-9,9-dimethyl-3,6-diazabicyclo[3.2.2]nonan-3-yl)phenyl)acetamide] it is 100%; for `CC1(C)C[C@@H]2CN(C(=O)N3CCN(S(C)(=O)=O)CC3)C[C@H]1N(c1ccc(N3CCS(=O)(=O)CC3)cc1)C2` [Example 61, ((1S,5S)-6-(4-(1,1-dioxidothiomorpholino)phenyl)-9,9-dimethyl-3,6-diazabicyclo[3.2.2]nonan-3-yl)(4-(methylsulfonyl)piperazin-1-yl)methanone] it is 79%.

Staying with this test, now noted: MDCK cysts, roGFP2 ratio at basal surface; read-out: LOX biosensor IC50 (cyst).
The term IC50 denotes the concentration that gives 50% inhibition. Regarding `CC1(C)C[C@@H]2CN(C(=O)N3CCS(=O)(=O)CC3)C[C@H]1N(c1ccc(N3CCN(S(C)(=O)=O)CC3)cc1)C2` [Example 31, ((1S,5S)-9,9-dimethyl-6-(4-(4-(methylsulfonyl)-1λ4-piperazin-1-yl)phenyl)-3,6-diazabicyclo[3.2.2]nonan-3-yl)(1,1-dioxidothiomorpholino)methanone], the concentration for half-maximal inhibition (IC50) was less than 180 nM. Turning to `CC1(C)C[C@@H]2CN(C(=O)NCCO)C[C@H]1N(c1ccc(N3CCCCC3)cc1)C2` [Example 32, (1S,5S)-N-(2-hydroxyethyl)-9,9-dimethyl-6-(4-(piperidin-1-yl)phenyl)-3,6-diazabicyclo[3.2.2]nonane-3-carboxamide], the IC50 was less than 180 nM. In the case of `C#CCCCN1C[C@@H]2CN(c3ccc(OCC)cc3)[C@H](C1)C(C)(C)C2` [Example 44, (1R,5S)-6-(4-ethoxyphenyl)-9,9-dimethyl-3-(pent-4-yn-1-yl)-3,6-diazabicyclo[3.2.2]nonane], the IC50 came to 310 nM.

The test is the same for the next values; noted with them: MDCK, read-out: LOX biosensor inhibition (cyst) @ 10 uM.
For `CC1(C)C[C@@H]2CN(C(=O)NCCO)C[C@H]1N(c1ccc(SCCO)cc1)C2` [Example 34, (1S,5S)-N-(2-Hydroxyethyl)-6-(4-((2-hydroxyethyl)thio)phenyl)-9,9-dimethyl-3,6-diazabicyclo[3.2.2]nonane-3-carboxamide], the inhibition at 10 µM came to 100%.
